From US10280159B2 (AbbVie Deutschland GmbH & Co. KG, priority 2015, dated 2019)

How the values were obtained:
Type in all cases: cell-based
human S1PR4 = biological target: T1, human S1PR4 (Homo sapiens, UniProt O95977); assay: Intracellular Ca2+ release (FLIPR) agonist potency, S1P4; conditions: recombinant CHO-K1 cells expressing human S1PR4, aequorin, Gq/i5; Calcium 5 FLIPR; read-out: S1P4 EC50
T1 construct: host or cells: CHO-K1
T1 sequence (O95977 1-384): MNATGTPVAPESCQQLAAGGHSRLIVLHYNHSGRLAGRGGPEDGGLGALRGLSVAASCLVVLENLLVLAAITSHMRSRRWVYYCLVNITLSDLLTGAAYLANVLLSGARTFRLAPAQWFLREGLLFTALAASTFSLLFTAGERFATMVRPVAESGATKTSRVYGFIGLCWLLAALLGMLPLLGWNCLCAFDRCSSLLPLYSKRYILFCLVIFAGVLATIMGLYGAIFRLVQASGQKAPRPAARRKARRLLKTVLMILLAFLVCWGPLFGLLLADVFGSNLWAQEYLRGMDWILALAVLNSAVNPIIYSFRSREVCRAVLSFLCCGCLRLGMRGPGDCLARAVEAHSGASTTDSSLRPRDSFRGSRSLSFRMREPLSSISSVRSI
Method in brief: (§1)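 CHO-K1 cells expressing the human receptor, aequorin and Gq/i5 were used; Ca²⁺ release read on FLIPR. EC50 derived from nonlinear fit of fluorescence data normalized to the phospho-fingolimod reference curve.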

human S1PR1 = biological target: T2, human S1PR1 (Homo sapiens, UniProt P21453); assay: Intracellular Ca2+ release (FLIPR) agonist potency, S1P1; conditions: recombinant CHO-K1 cells expressing human S1PR1, aequorin, Gq/i5; Calcium 5 FLIPR; read-out: S1P1 EC50
T2 construct: host or cells: CHO-K1
T2 sequence (P21453 whole entry): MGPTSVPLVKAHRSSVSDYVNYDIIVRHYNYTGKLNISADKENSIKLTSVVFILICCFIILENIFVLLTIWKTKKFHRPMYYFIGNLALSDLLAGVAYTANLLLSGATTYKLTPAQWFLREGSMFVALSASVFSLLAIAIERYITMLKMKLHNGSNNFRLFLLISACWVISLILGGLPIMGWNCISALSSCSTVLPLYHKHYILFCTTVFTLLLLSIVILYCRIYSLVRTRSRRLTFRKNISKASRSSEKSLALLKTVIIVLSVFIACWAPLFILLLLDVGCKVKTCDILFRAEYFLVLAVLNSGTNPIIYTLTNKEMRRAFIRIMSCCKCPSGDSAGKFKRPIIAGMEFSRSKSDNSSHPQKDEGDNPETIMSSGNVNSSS
Method in brief: as §1

human S1PR5 = biological target: T3, human S1PR5 (Homo sapiens, UniProt Q9H228); assay: Intracellular Ca2+ release (FLIPR) agonist potency, S1P5; conditions: recombinant CHO-K1 cells expressing human S1PR5, aequorin, Gq/i5; Calcium 5 FLIPR; read-out: S1P5 EC50 range
T3 construct: host or cells: CHO-K1
T3 sequence (Q9H228 whole entry): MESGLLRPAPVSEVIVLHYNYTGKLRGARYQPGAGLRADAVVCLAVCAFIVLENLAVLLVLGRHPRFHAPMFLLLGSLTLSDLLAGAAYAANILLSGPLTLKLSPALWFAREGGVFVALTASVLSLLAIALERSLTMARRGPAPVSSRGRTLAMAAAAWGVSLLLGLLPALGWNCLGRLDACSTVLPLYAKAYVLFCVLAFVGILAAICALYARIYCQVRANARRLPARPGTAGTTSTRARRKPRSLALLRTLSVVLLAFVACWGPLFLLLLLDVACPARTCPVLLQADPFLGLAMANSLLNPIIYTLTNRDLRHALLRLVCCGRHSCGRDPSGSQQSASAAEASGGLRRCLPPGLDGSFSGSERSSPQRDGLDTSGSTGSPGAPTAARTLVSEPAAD
Method in brief: as §1

human S1PR3 = biological target: T4, human S1PR3 (Homo sapiens, UniProt Q99500); assay: Intracellular Ca2+ release (FLIPR) agonist potency, S1P3; conditions: recombinant CHO-K1 cells expressing human S1PR3, aequorin, Gq/i5; Calcium 5 FLIPR; read-out: S1P3 EC50
T4 construct: host or cells: CHO-K1
T4 sequence (Q99500 whole entry): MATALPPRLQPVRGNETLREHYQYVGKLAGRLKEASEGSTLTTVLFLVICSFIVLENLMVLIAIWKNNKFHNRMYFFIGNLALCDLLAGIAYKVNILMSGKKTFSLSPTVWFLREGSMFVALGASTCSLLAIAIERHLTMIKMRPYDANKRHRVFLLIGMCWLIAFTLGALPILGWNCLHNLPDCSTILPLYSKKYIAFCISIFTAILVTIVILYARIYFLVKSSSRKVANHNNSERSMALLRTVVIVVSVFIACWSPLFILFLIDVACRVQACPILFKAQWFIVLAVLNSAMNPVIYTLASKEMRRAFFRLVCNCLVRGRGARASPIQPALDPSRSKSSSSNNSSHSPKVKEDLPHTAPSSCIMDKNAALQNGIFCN
Description: Agonistic activity was measured using the method described below.
Intracellular Ca^2+ Release
Agonist potency and intrinsic activity was assessed by measurement of intracellular Ca^2+ release. Recombinant CHO-K1 cells (Euroscreen, Brussels, Belgium) expressing human S1PR5, S1PR1, S1PR3 or S1PR4 receptors, aequorin, and GTP binding protein Gq/i5 were cultured using a medium containing nutrient mixture F-12 Ham (Sigma-Aldrich) with 10% FBS, and 100 μg/mL gentamicin and equilibrated at 5% CO2.
Phospho-fingolimod was used as positive control. Antagonists were pre-incubated for 10 min with cells before addition of the agonist (phospho-fingolimod at EC80). Measurements were performed using a fluorometric imaging plate reader FLIPR®tetra (Molecular Devices). Agonist at the human S1P receptors were characterized by deducing EC50 (potency) values from a nonlinear fit to the measured fluorescence raw data after normalization to the reference agonist (phospho-fingolimod) curve.

EC50 (human S1PR4) [nM] | EC50 (human S1PR1) [nM] | EC50 (human S1PR5) [nM] | EC50 (human S1PR3) [nM] | Structure (SMILES)
> 1000 | > 1000 | < 10 | > 1000 | O=C(O)C1CCN(C2COc3cc(OCc4c(Cl)cccc4Cl)ccc3C2)C1 (single isomer, unassigned) [Compound 50, 1-(7-((2,6-dichlorobenzyl)oxy)chroman-3-yl)pyrrolidine-3-carboxylic acid]
> 1000 | > 1000 | < 10 | > 1000 | O=C(O)C1CN(C2COc3cc(OCc4c(Cl)cccc4Cl)ccc3C2)C1 (centres unmarked) [Compound 1, 1-(7-((2,6-dichlorobenzyl)oxy)chroman-3-yl)azetidine-3-carboxylic acid]
– | > 1000 | < 10 | > 1000 | O=C(O)C1CN(C2CCc3cc(OCc4c(Cl)cccc4Cl)ccc3C2)C1 (centres unmarked) [Compound 4, 1-(6-((2,6-dichlorobenzyl)oxy)-1,2,3,4-tetrahydronaphthalen-2-yl)azetidine-3-carboxylic acid]
< 1000 | > 1000 | < 10 | > 1000 | CCc1cccc(Cl)c1COc1ccc2c(c1)CCC(NC1(C(=O)O)CC1)C2 (centres unmarked) [Compound 5, 1-((6-((2-chloro-6-ethylbenzyl)oxy)-1,2,3,4-tetrahydronaphthalen-2-yl)amino)cyclopropanecarboxylic acid]
– | < 1000 | < 10 | > 1000 | CCc1cccc(Cl)c1COc1ccc2c(c1)CCC(NCCC(=O)O)C2 (centres unmarked) [Compound 6, 3-((6-((2-chloro-6-ethylbenzyl)oxy)-1,2,3,4-tetrahydronaphthalen-2-yl)amino)propanoic acid]
– | > 1000 | 10 to 100 | > 1000 | O=C(O)CCNC1CCc2cc(OCc3ccccc3)ccc2C1 (centres unmarked) [Compound 7, 3-((6-(benzyloxy)-1,2,3,4-tetrahydronaphthalen-2-yl)amino)propanoic acid]
< 1000 | > 1000 | < 10 | > 1000 | O=C(O)CCNC1CCc2cc(OCc3ccccc3Cl)ccc2C1 (centres unmarked) [Compound 8, 3-((6-((2-chlorobenzyl)oxy)-1,2,3,4-tetrahydronaphthalen-2-yl)amino)propanoic acid]
– | > 1000 | < 10 | > 1000 | O=C(O)CCNC1CCc2cc(OCc3c(Cl)cccc3Cl)ccc2C1 (centres unmarked) [Compound 9, 3-((6-((2,6-dichlorobenzyl)oxy)-1,2,3,4-tetrahydronaphthalen-2-yl)amino)propanoic acid]
– | > 1000 | 1000 to 10000 | > 1000 | O=C(O)CCNC1CCc2ccc(OCc3c(Cl)cccc3Cl)cc2C1 (centres unmarked) [Compound 10, 3-((7-((2,6-dichlorobenzyl)oxy)-1,2,3,4-tetrahydronaphthalen-2-yl)amino)propanoic acid]
– | > 1000 | 1000 to 10000 | > 1000 | O=C(O)CCNC1CCc2cc(OCc3ccc(Cl)cc3)ccc2C1 (centres unmarked) [Compound 11, 3-((6-((4-chlorobenzyl)oxy)-1,2,3,4-tetrahydronaphthalen-2-yl)amino) propanoic acid]
< 1000 | > 1000 | < 10 | > 1000 | O=C(O)CCNC1CCc2cc(C#Cc3c(Cl)cccc3Cl)ccc2C1 (centres unmarked) [Compound 12, 3-((6-((2,6-dichlorophenyl)ethynyl)-1,2,3,4-tetrahydronaphthalen-2-yl)amino)propanoic acid]
< 1000 | > 1000 | < 10 | > 1000 | CN(CCC(=O)O)C1CCc2cc(C#Cc3c(Cl)cccc3Cl)ccc2C1 (centres unmarked) [Compound 13, 3-((6-((2,6-dichlorophenyl)ethynyl)-1,2,3,4-tetrahydronaphthalen-2-yl)(methyl)amino)propanoic acid]
< 1000 | > 1000 | < 10 | > 1000 | O=C(O)CCNC1CCc2cc(C#Cc3cc(F)cc(F)c3)ccc2C1 (centres unmarked) [Compound 14, 3-((6-((3,5-difluorophenyl)ethynyl)-1,2,3,4-tetrahydronaphthalen-2-yl)amino)propanoic acid]
< 1000 | > 1000 | < 10 | > 1000 | CN(CCC(=O)O)C1CCc2cc(C#Cc3cc(F)cc(F)c3)ccc2C1 (centres unmarked) [Compound 15, 3-((6-((3,5-difluorophenyl)ethynyl)-1,2,3,4-tetrahydronaphthalen-2-yl)(methyl)amino)propanoic acid]
< 1000 | > 1000 | 100 to 1000 | > 1000 | CN(CCC(=O)O)C1CCc2cc(OCc3ccccc3Cl)ccc2C1 (centres unmarked) [Compound 16, 3-((6-((2-chlorobenzyl)oxy)-1,2,3,4-tetrahydronaphthalen-2-yl)(methyl)amino)propanoic acid]
< 1000 | < 1000 | < 10 | > 1000 | CCc1cccc(Cl)c1COc1ccc2c(c1)CCC(N(C)CCC(=O)O)C2 (centres unmarked) [Compound 17, 3-((6-((2-chloro-6-ethylbenzyl)oxy)-1,2,3,4-tetrahydronaphthalen-2-yl)(methyl)amino)propanoic acid]
< 1000 | < 1000 | < 10 | > 1000 | O=C(O)CCNC1CCc2cc(/C=C/c3c(Cl)cccc3Cl)ccc2C1 (centres unmarked) [Compound 18, (E)-3-((6-(2,6-dichlorostyryl)-1,2,3,4-tetrahydronaphthalen-2-yl)amino)-propanoic acid]
< 1000 | > 1000 | 10 to 100 | > 1000 | O=C(O)CCNC1CCc2cc(/C=C/c3ccccc3)ccc2C1 (centres unmarked) [Compound 19, (E)-3-((6-styryl-1,2,3,4-tetrahydronaphthalen-2-yl)amino)propanoic acid]
< 1000 | > 1000 | < 10 | > 1000 | O=C(O)CCNC1CCc2cc(/C=C/c3cccc(Cl)c3)ccc2C1 (centres unmarked) [Compound 20, (E)-3-((6-(3-chlorostyryl)-1,2,3,4-tetrahydronaphthalen-2-yl)amino)-propanoic acid]
> 1000 | > 1000 | 1000 to 10000 | > 1000 | O=C(O)CCNC1CCc2cc(OCc3c(Cl)cccc3C3CC3)ccc2C1 (centres unmarked) [Compound 21, 3-((6-((2-chloro-6-cyclopropylbenzyl)oxy)-1,2,3,4-tetrahydronaphthalen-2-yl)amino)propanoic acid]
> 1000 | > 1000 | 1000 to 10000 | > 1000 | C=C(CN(Cc1c(Cl)cccc1CC)C1CCc2cc(OCc3c(Cl)cccc3CC)ccc2C1)C(=O)OC (centres unmarked) [Compound 22, Methyl 2-(((2-chloro-6-ethylbenzyl)(6-((2-chloro-6-ethylbenzyl)oxy)-1,2,3,4-tetrahydronaphthalen-2-yl)amino)methyl)acrylate]
< 1000 | > 1000 | < 10 | > 1000 | CCc1cccc(Cl)c1COc1ccc2c(c1)OCC(N1CC(C(=O)O)C1)C2 (centres unmarked) [Compound 23, 1-(7-((2-chloro-6-ethylbenzyl)oxy)chroman-3-yl)azetidine-3-carboxylic acid]
> 1000 | > 1000 | 1000 to 10000 | > 1000 | O=C(O)C1CN(C2COc3cc(OCc4cccc(Cl)c4)ccc3C2)C1 (centres unmarked) [Compound 24, 1-(7-((3-chlorobenzyl)oxy)chroman-3-yl)azetidine-3-carboxylic acid]
